Legend:
[1] = Fluorescence titration of the probe with ClO-; conditions: excitation 440 nm
[2] = system: zebrafish (斑马鱼); experiment: Fluorescence bioimaging of ClO- in zebrafish; format: in vivo
[3] = Fluorescence selectivity of the probe for ClO- over other ions/species
[4] = UV-vis absorption spectra of the probe on addition of ClO-; conditions: aqueous solution, probe 10 μM and 5 μM, ClO- added
[5] = system: MRC-5 cells (人胚肺细胞(MRC-5)); experiment: Fluorescence bioimaging of ClO- in MRC-5 cells; format: cell-based, human

O=C1NC(=S)NC(=O)C1=Cc1ccc2cc(O)ccc2c1 [小分子探针]
maximum emission ([1]; probe 5 μM in water with ClO-): 535 nm
fluorescence intensity as a function of ClO- concentration ([1]; probe 5 μM in water, 400-700 nm): 随ClO-浓度增加而增强
red fluorescence in head and abdomen ([2]; 5-day-old zebrafish pretreated with probe, washed three times, then ClO- 6.0 μM): 显着的红色荧光
red fluorescence in the abdomen ([2]; 5-day-old zebrafish, free probe 2.0 μM, 20 min, without added ClO-): 弱而可见的 红色荧光
tissue penetration ability ([2]; zebrafish): 高组织穿透能力
fluorescence change with anions/species other than ClO- ([3]; probe 2 μM in EtOH-H2O (v/v=1:10), 1.0 eq SO3 2-, NO, 1O2, ·OH, PBO·, TBHP, DBTP, Cys, GSH, H2O2): 没有产生明显变化
fluorescence intensity after addition of ClO- ([3]; probe 2 μM in EtOH-H2O (v/v=1:10), ClO- 1.0 eq): 明显
selectivity for ClO- ([3]; probe 2 μM in EtOH-H2O (v/v=1:10), anions 1.0 eq): 高选择性
fluorescence change with other ions ([3]; probe mixed with other ions (not hypochlorite)): 荧光基本上不发生变化
fluorescence intensity on reaction with hypochlorite ion ([3]; probe with hypochlorite ion): 荧光强度变强
absorption band at 440 nm on addition of ClO- [4]: 逐渐减少
new absorption peak after addition of ClO- [4]: 515 nm
fluorescence signal in cells ([5]; MRC-5 cells incubated with free probe, without added ClO-): 观察到可见荧光信号
fluorescence intensity in the red channel ([5]; MRC-5 cells incubated with probe 20 min, then ClO- 6.0 μM, observed immediately): 显着荧光强度

Reference: CN111004186A, “一种小分子荧光探针及其制备方法与应用” (Wenzhou Medical University, priority 2019, dated 2020)
